Experimental data: a melting point compilation (Tetko et al.)

| melting point [°C] | SMILES |
| --- | --- |
| 31 | CCCCCCCCCCCCCCCC#N |
| 253 | Cc1c(NC(=O)c2cccnc2)c(=O)n(-c2ccccc2)n1C |
| 90 to 92 | CC(C)(C)OC(=O)N=NC(=O)OC(C)(C)C |
| 114 | CCN(CC)CCOC(=O)C(c1ccccc1)c1ccccc1 |
| 57.5 | CCCCCCC=NO |
| 268 | O=C(O)c1cccc(-c2ccncc2)c1 |
| 160 | NC(=O)/C(=N\Nc1ccc(O)cc1)c1nc2ccccc2s1 |
| 157 to 159 | CCOC(=O)C(C)=P(c1ccccc1)(c1ccccc1)c1ccccc1 |
| 143 | COc1ccc(O)c(C(=O)O)c1 |
| 138 to 140 | CCOC(CNC(=O)C(N)=O)OCC |
| 83 to 85 | O=C(CBr)c1ccc(Cl)c([N+](=O)[O-])c1 |
| 10 | CCCCCCc1ccc(C#Cc2ccc(CC)cc2)cc1 |
| 35.5 | CCCCOC(=O)c1ccc([N+](=O)[O-])cc1 |
| 188 | CCOC(=O)c1cc(-c2ccc(Cl)cc2)oc1C=O |
| 134 to 136 | O=C(O)c1cccc(N2CCCC2)n1 |
| -15.5 | CCCCCCCCC(=O)OCCCCCCC |
| 222 to 223 | O=C(C(=S)Nc1ccc(Cl)cc1)c1ccccc1 |
| 144 | CC(NC(=O)CCCCN1C(=O)c2ccccc2C1=O)[P+]([O-])(Oc1ccccc1)Oc1ccccc1 (configuration not stated) |
| 94 | CCOC(=O)c1cc2ccccc2oc1=O |
| 125 | CCCC(CCC)C(N)=O |

| melting point [°C] | SMILES |
| --- | --- |
| 182 to 186 | CCNCC(=O)O |
| 120 to 124 | O=C(O)COCCNC(=O)C12CC3CC(CC(C3)C1)C2 |
| 117 to 118 | COC(=O)c1sccc1-c1ccc(C=O)o1 |
| 75 to 76 | CCOC(=O)/C(=N\Nc1ccc(Cl)cc1)C(=O)C(F)(F)F |
| 142 | O=C(O)Cc1ccc2ccccc2c1 |
| 72 | CCCCCCCCCCCCCCCCCC(=O)OC(=O)CCCCCCCCCCCCCCCCC |
| 37 | CCN(CCO)c1ccccc1 |
| 20.5 | CC=CC(=O)c1ccccc1 |
| 315 | O=C(O)c1ccncc1 |
| -123 | CCCC(C)C(O)CC (configuration not stated) |
| 192 to 196 | O=C(O)C=Cc1c(Cl)cccc1Cl |
| 124 | Cc1cccc(N)c1C(=O)O |
| 199 | COc1ccc(C(=O)C2=NOC3C(=O)N(c4ccc(C(=O)O)cc4)C(=O)C23)cc1 (configuration not stated) |
| 97 | CCOC(=O)c1cc(-c2ccccc2)n(-c2ccccc2)c1C |
| 50 | C=C(NC(C)=O)C(=O)OC |
| 61 | CC(=O)NCc1ccccc1 |
| -63 | CCCNCCC |
| 186 | COc1ccc(CC(N)=O)cc1 |
| 205 | Cc1c(C)c(CBr)c(CBr)c(CBr)c1CBr |
| -45 | CCC(=O)N(C)C |

| melting point [°C] | SMILES |
| --- | --- |
| 143 to 145 | CC(=O)Nc1ccc(S(=O)(=O)Cl)cc1Cl |
| 155 | NC(=O)CCC(=O)O |
| -73.1 | CCCCCOC(=O)CC |
| -67.5 | CCC(C)CCC(C)(O)CC (configuration not stated) |
| 84 to 85 | COC(=O)c1c(OC)c(OC)c(OC)c(C(=O)OC)c1C(=O)OC |
| 115 | COc1c(Cl)ccc(Cl)c1C(=O)O |
| 185 to 186 | O=C(CCl)Nc1ccc([N+](=O)[O-])cc1 |
| 144 to 145 | O=C(O)c1snnc1-c1ccccc1 |
| 3 to 5 | CC(C)OC(=O)N=NC(=O)OC(C)C |
| 70 | CCOCCc1ccc(OCCNc2ncnc(CC)c2Cl)c(C)c1C |
| 63 to 65 | O=C(CBr)c1ccc(OC(F)F)cc1 |
| 102 to 105 | Cc1occc1C(=O)O |
| 108 | Cc1cc(CC(C)CC(C)(C)C)n(O)c(=O)c1 (configuration not stated) |
| 117 to 119 | CC(=O)c1ccc(O)c(O)c1 |
| 88 to 89 | O=C(O)c1c(F)cccc1C(F)(F)F |
| 91 | CN(CC(=O)O)C(=O)OC(C)(C)C |
| 127 | O=C(O)CCCCCCCCCCCCC(=O)O |
| -47 | C=CCOC(=O)C=CC(=O)OCC=C |

Continued, compound first:

| SMILES | melting point [°C] |
| --- | --- |
| C1=CC2=CC=Cc3c(c(c4cccc5cccc3c54)=C1)C2 | 171 |
| Cc1cc(C)c([N+](=O)[O-])c(C)c1[N+](=O)[O-] | 85.3 |
| Oc1c(F)ccc(F)c1F | 33.5 |
| Cc1cc(C(C)(C)C)cc(C(C)(C)C)c1 | 32 |
| Nc1c(Br)cc([N+](=O)[O-])cc1Br | 207 |
| N#Cc1ccnc(Cl)c1 | 71 to 72 |
| NSCc1cc2ccccc2oc1=O | 255 |
| Cc1cc(C#N)ccc1N | 94 |
| CC(C)OC(=O)C1(S(=O)(=O)c2ccc([N+](=O)[O-])cc2)CCCCC1 | 110 |
| CN(C)c1ccc(C2CC(=O)CC(=O)C2)cc1 | 201 to 204 |
| Cc1cc(N=Nc2ccccc2)c(C(C)C)cc1[N+]([O-])=Nc1ccccc1 | 118 |
| CSc1nc(N)nc(-c2cccs2)n1 | 176 to 177 |
| N#Cc1cccc(CS(=O)(=O)Cl)c1 | 100 to 102 |
| ClC1(Cl)CCCCC1 | -47 |
| CC1(c2ccccc2)CC(C(=NOCC2CO2)c2cc3ccccc3o2)C1 (configuration not stated) | 159 to 160 |
| C/C=C/C#N | -51.5 |
| Oc1ccc(O)c(O)c1 | 140 |
| Nc1ccccc1N1CCNCC1 | 115 |
| Cc1cc(N2CCNCC2)c2ccccc2n1 | 101 to 103 |
| CC(=O)Nc1c(C)cc(Cl)cc1Cl | 174 to 176 |
| COc1cc2nc[nH]c(=O)c2cc1OC | 250 |
| CNC(=O)Oc1ccccc1OC(CCl)OC (configuration not stated) | 80 |
| CCc1ccccc1Nc1ccccc1CC | 29 |
| OC(c1c2ccccc2cc2ccccc12)C(F)(F)F (configuration not stated) | 142 |
| Cc1ccnc(O)c1[N+](=O)[O-] | 228 to 232 |
| CCOc1ccc2c(c1)C(C)=CC(C)(C)N2 | < -20 |
| CCOC(=O)c1cc(-c2cccs2)nn1C | 72 to 73 |

| SMILES | melting point [°C] |
| --- | --- |
| Cc1ccc(-c2nc3ccc(C)cn3c2CC(=O)N(C)C)cc1 | 196 |
| CC12CCC(C(=O)/C(=C\c3ccccc3[N+](=O)[O-])C1=O)C2(C)C (configuration not stated) | 140 to 141 |
| CSc1ccc(S)cc1 | 13 |
| CC1NC(=O)C(C)NC1=O (configuration not stated) | 274 to 278 |
| O=c1[nH]c2ncccc2o1 | 214 to 215 |
| N#CCCNC1CCCCC1 | 122 to 124 |
| Cc1ccc2c(c1)CC2=O | 53 |
| N[C@H](c1ccccc1)[C@H](N)c1ccccc1 | 81 to 84 |
| Oc1cc(C(F)(F)F)nc2c(Br)cccc12 | 136 to 137 |
| NCc1ccc(S(N)(=O)=O)cc1 | 151 |
| Cc1ccc(C(=CCN2CCCC2)c2ccccn2)cc1 | 60 |
| CC1(C)CC(=O)c2cc(-c3ccccc3)n(-c3ccc(Cl)c(Cl)c3)c2C1 | 167 to 169 |
| Cc1ccc2cc(F)ccc2n1 | 54 |
| CC(C)(C)c1ccc(-c2ccc(Br)cc2)cc1 | 142 |
| O=Cc1cccn1-c1ccc(Cl)cc1 | 92 to 96 |
| CCF | -143 |
| Clc1ccc(C2C3CCc4ccccc4C3=NN2c2ccc(Cl)cc2)cc1 (configuration not stated) | 186 to 188 |
| COc1ccc2c(c1)C(=O)C(=O)N2 | 200 |
| Nc1ccc(C(O)(C(F)(F)F)C(F)(F)F)cc1 | 150 |
| CP(=O)(c1ccccc1)c1ccccc1 | 113 |
| O=[N+]([O-])c1ncccc1Br | 104 |
| O=C1CN(N=Cc2ccc([N+](=O)[O-])o2)C(=O)N1CN1CCOCC1 | 206 |
| Brc1ccc(Oc2ccccc2)cc1Br | < 20 |
| CCc1c(C)nc(N)nc1Cl | 213 to 214 |
| ClCc1c2ccccc2cc2ccccc12 | 140 |
| O=S(=O)(Cl)Cc1ccc(F)cc1 | 61 to 63 |
| Cc1c(N=C=O)cnn1-c1ccccc1 | 56 to 60 |

| SMILES | melting point [°C] |
| --- | --- |
| COc1ccc2c(c1)c(C=O)cn2C | 135 |
| CC1CCC(=O)C1=O (configuration not stated) | 105 to 110 |
| Nc1ccccc1S(N)(=O)=O | 155 |
| CCC1C(C#N)=C(N)Oc2c1c(=O)oc1ccccc21 (configuration not stated) | 233 to 237 |
| Nc1ccc2oc3c(c2c1)CCCC3 | 73 to 75 |
| COc1ccc(C=O)c(Cl)c1OC | 71 to 72 |
| NC(=NO)c1cc(C(F)(F)F)cc(C(F)(F)F)c1 | 131 to 133 |
| COc1ccc(C=Cc2ccc(OC)cc2)cc1 | 214 |
| Brc1ccc2c(c1)OCCOCCOCCOCCOCCO2 | 79 to 83 |
| Cc1cc(C(=O)CCl)c(C)n1-c1ccc(F)cc1 | 80 to 82 |
| CCC(=O)C1(c2cccc(O)c2)CCN(C)CC1 | 156 |
| CC(C)(C)c1cc(S)cc(C(C)(C)C)c1O | 76 |
| O=C(CBr)c1ccc(Cl)c(Cl)c1 | 57 |
| OCc1cccc2c1OCCO2 | 54 to 55 |
| CC12CCC(=O)C3OC31CC(C1(O)CCC3(C)C(=O)CCC34OC14)C2=O (configuration not stated) | 182 |
| COc1ccc(-c2cc(C(F)(F)F)nc(N)n2)cc1 | 191 to 194 |
| COP(=O)(OC)OC=C(Cl)Cl | -60 |
| Oc1cc(C(F)(F)F)nc2c(F)cccc12 | 113 |
| CCC(C)(C)c1ccc(O)c(C(C)(C)CC)c1 | 25 |
| O=[N+]([O-])c1ccc(NN=CC2=C(/C=C/c3ccccc3)CCCC2)c([N+](=O)[O-])c1 | 261 to 262 |
| Nc1ccc2c(c1)S(=O)(=O)C=C2 | 150 |
| O=C1c2ccccc2CC2C=CC=CN12 (configuration not stated) | 93 |
| CSc1nn2c(=O)c(C)nnc2s1 | 196 |
| C=C(C)C1Cc2c(cc(O)c3c2OC2COc4cc(OC)c(OC)cc4C2C3=O)O1 (configuration not stated) | 195 |
| Clc1cc(C(Cl)Cl)c(Cl)cc1C(Cl)Cl | 72 |
